The experiment relates to SlG3. As to the kind of experiment: GGPPS enzyme assay. In kind it is biochemical, Solanum lycopersicum.

With `CC(C)=CCOP(=O)(O)OP(=O)(O)O` [DMAPP], the Km (as a rule, the concentration of substrate that gives half-maximal velocity) (co-substrate 100 µM IPP) was 45.8 ± 6.81 µM. Consider `C=C(C)CCOP(=O)(O)OP(=O)(O)O` [IPP], for which, where the note is “co-substrate 100 µM DMAPP”, the Michaelis constant (Km) came to 45.9 ± 4.86 µM.

The values above are taken from publication doi:10.1101/2020.07.08.194076v1 (biorxiv, 2020).
